Laboratory results reported in patent US8901086B2, “Compositions including triciribine and methods of use thereof” (University of South Florida, priority 2004, dated 2014).
Each block holds one compound with its values, some of them ahead of it.

What was measured:
[1] = test system: H929 cells and U266 cells; test: Survival of multiple myeloma derived cells; format: cell-based
[2] = target: PKCα (Homo sapiens, UniProt P17252); test: PKCα activity, kinase assay and immunoblot; format: cell-based
[3] = test system: Akt; format: cell-based, human; conditions: 2 hours; trastuzumab 2 μg/ml, triciribine 2.5 μM, RAD001 0.4 nM
[4] = test system: p70S6K; format: cell-based, human; conditions: 2 hours; trastuzumab 2 μg/ml, RAD001 0.4 nM
[5] = test system: MCF7 cells; test: Western blot of Akt pathway after mTOR inhibitor; format: cell-based; conditions: 24 hour time course
Experimental: The upper panels (A) show western blots of OV3 cell lysates following the treatment with 1 nM mTOR inhibitor rapamycin for the time indicated. Membranes were probed with antibodies specific to phosphorylated isoforms and to the total protein for comparison of Akt, p70S6K and FKHRL 1. The lower panels (B) illustrate western blots of MCF7 cell lysates following treatment with the mTOR inhibitor RAD001 for the time indicated. Membranes were probed with antibodies specific to phosphorylated isoforms and to the total protein for comparison of Akt and p70S6K.
OV3 and MCF7 cells were treated with the mTOR inhibitors rapamycin and RAD001, respectively, over a 24 hour time course. Lysyates were resolved by SDS-PAGE and transferred to a membrane for western blotting. Membranes were probed with antibodies to phospho-Akt, total Akt, phospho-p70S6K, and total p70S6K. Membranes with lysates derived from OV3 cells were additionally probed with antibodies to phospho-FKHRL 1 and total FKHRL 1.

Structure (SMILES): CC(C)C[C@H](NC(=O)[C@H](Cc1ccccc1)NC(=O)c1cnccn1)B(O)O [bortezomib]
effect of API-2 on survival of myeloma cells [1]: synergistically enhances

kinase activity of PKCα [2]: inhibited
Structure (SMILES): Cn1cc(C2=C(c3cn(CCCSC(=N)N)c4ccccc34)C(=O)NC2=O)c2ccccc21 [Ro 31-8220]

Structure (SMILES): CO[C@H]1C[C@@H]2CC[C@@H](C)[C@@](O)(O2)C(=O)C(=O)N2CCCC[C@H]2C(=O)O[C@H]([C@H](C)C[C@@H]2CC[C@@H](OCCO)[C@H](OC)C2)CC(=O)[C@H](C)/C=C(\C)[C@@H](O)[C@@H](OC)C(=O)[C@H](C)C[C@H](C)/C=C/C=C/C=C/1C [RAD001, everolimus]
phosphorylation of Akt on Thr308 and Ser473 [3]: feedback activation of Akt | phosphorylation of p70S6K [4]: dramatically blocked | activation of Akt pathway [5]: rapid activation of Akt pathway
